Data: ChEMBL document CHEMBL4311976, “Design, synthesis and biological evaluation of novel 7H-pyrrolo[2,3-d]pyrimidine derivatives as potential FAK inhibitors and anticancer agents” (Eur J Med Chem, 2019)

Key:
[1] = biological target: Tyrosine-protein kinase ZAP-70 (Homo sapiens) (UniProt P43403); assay: Inhibition of recombinant full length His-tagged human ZAP70 expressed in baculovirus expression system at 0.5 uM using tyr 07 as substrate in presence of ATP at Km concentration after 1 hr by Z'-LYTE assay relative to control
[2] = biological target: Serine/threonine-protein kinase TBK1 (Homo sapiens) (UniProt Q9UHD2); assay: Inhibition of recombinant full length GST-tagged human TBK1 expressed in insect cells at 0.5 uM using Ser/Thr 05 as substrate in presence of ATP at Km concentration after 1 hr by Z'-LYTE assay relative to control
[3] = organism: Homo sapiens; assay: Inhibition of recombinant full length His-tagged human PKA catalytic domain expressed in Escherichia coli at 0.5 uM using Ser/Thr 01 as substrate in presence of ATP at Km concentration after 1 hr by Z'-LYTE assay relative to control
[4] = biological target: Serine/threonine-protein kinase PLK1 (Homo sapiens) (UniProt P53350); assay: Inhibition of recombinant full length His-tagged human PLK1 expressed in baculovirus expression system at 0.5 uM using Ser/Thr 16 as substrate in presence of ATP at Km concentration after 1 hr by Z'-LYTE assay relative to control
[5] = biological target: Tyrosine-protein kinase Lck (Homo sapiens) (UniProt P06239); assay: Inhibition of recombinant full length His-tagged human LCK expressed in baculovirus expression system at 0.5 uM using tyr 02 as substrate in presence of ATP at Km concentration after 1 hr by Z'-LYTE assay relative to control
[6] = biological target: Receptor-type tyrosine-protein kinase FLT3 (Homo sapiens) (UniProt P36888); assay: Inhibition of recombinant His-tagged human FLT3 (564 to 958 residues) expressed in baculovirus expression system at 0.5 uM using tyr 02 as substrate in presence of ATP at Km concentration after 1 hr by Z'-LYTE assay relative to control
[7] = biological target: Fibroblast growth factor receptor 1 (Homo sapiens) (UniProt P11362); assay: Inhibition of recombinant His-tagged human FGFR1 (308 to 731 resides) expressed in baculovirus expression system at 0.5 uM using tyr 04 as substrate in presence of ATP at Km concentration after 1 hr by Z'-LYTE assay relative to control
[8] = biological target: Serine/threonine-protein kinase Chk1 (Homo sapiens) (UniProt O14757); assay: Inhibition of recombinant full-legth His-tagged human CHK1 expressed in baculovirus expression system at 0.5 uM using Ser/Thr 19 as substrate in presence of ATP at Km concentration after 1 hr by Z'-LYTE assay relative to control
[9] = biological target: CDK2/Cyclin A2 (Homo sapiens) (UniProt P24941+P20248); assay: Inhibition of recombinant full-legth His-tagged human CDK2/CyclinA expressed in baculovirus expression system at 0.5 uM using Ser/Thr 12 as substrate in presence of ATP at Km concentration after 1 hr by Z'-LYTE assay relative to control
[10] = biological target: Serine/threonine-protein kinase B-raf (Homo sapiens) (UniProt P15056); assay: Inhibition of full length GST-tagged human BRAF expressed in baculovirus expression system at 0.5 uM using Ser/Thr 03 as substrate in presence of 100 uM ATP after 1 hr by Z'-LYTE assay relative to control
[11] = biological target: ALK tyrosine kinase receptor (Homo sapiens) (UniProt Q9UM73); assay: Inhibition of recombinant human GST-tagged ALK (1058 to 1620 residues) expressed in baculovirus at 0.5 uM using tyr 01 as substrate as substrate in presence of ATP at Km concentration after 1 hr by Z'-LYTE assay relative to control
[12] = biological target: RAC-alpha serine/threonine-protein kinase (Homo sapiens) (UniProt P31749); assay: Inhibition of recombinant full-legth His-tagged human AKT1 expressed in baculovirus expression system at 0.5 uM using Ser/Thr 06 as substrate in presence of ATP at Km concentration after 1 hr by Z'-LYTE assay relative to control
[13] = biological target: CYP3A4 (Homo sapiens, UniProt P08684); assay: Inhibition of CYP3A4 in human pooled liver microsomes at 10 uM using midazolam as substrate preincubated for 10 mins followed by NADPH addition and measured after 15 mins by LC/MS/MS analysis relative to control; type: ADME; settings: probe midazolam
[14] = biological target: CYP2D6 (Homo sapiens, UniProt P10635); assay: Inhibition of CYP2D6 in human pooled liver microsomes at 10 uM using dextromethorphan as substrate preincubated for 10 mins followed by NADPH addition and measured after 15 mins by LC/MS/MS analysis relative to control; type: ADME; settings: probe dextromethorphan
[15] = biological target: CYP2C9 (Homo sapiens, UniProt P11712); assay: Inhibition of CYP2C9 in human pooled liver microsomes at 10 uM using diclofenac as substrate preincubated for 10 mins followed by NADPH addition and measured after 15 mins by LC/MS/MS analysis relative to control; type: ADME; settings: probe diclofenac
[16] = Intrinsic clearance in mouse liver at 1 uM measured up to 1 hr in presence of NADPH by LC-MS/MS analysis; type: ADME, tissue-based
[17] = Intrinsic clearance in rat liver microsomes at 1 uM measured up to 1 hr in presence of NADPH by LC-MS/MS analysis; type: ADME, Microsome; settings: read-out: CLH
[18] = Metabolic stability in rat liver microsomes assessed as compound remaining at 1 uM measured up to 1 hr in absence of NADPH by LC-MS/MS analysis; type: ADME, Microsome; settings: read-out: Stability
[19] = Metabolic stability in mouse liver microsomes assessed as compound remaining at 1 uM measured up to 1 hr in absence of NADPH by LC-MS/MS analysis; type: ADME, Microsome; settings: read-out: Stability
[20] = Half life in mouse liver microsomes at 1 uM measured up to 1 hr by LC-MS/MS analysis; type: ADME, Microsome
[21] = tested on: A549; assay: Induction of apoptosis in human A549 cells assessed as early apoptotic cells at 9 uM after 72 hrs by Annexin V-FITC/propidium iodide staining-based flow cytometric analysis (reference value: 2.40%); type: functional
[22] = tested on: A549; assay: Induction of apoptosis in human A549 cells assessed as early apoptotic cells at 3 uM after 72 hrs by Annexin V-FITC/propidium iodide staining-based flow cytometric analysis (reference value: 2.40%); type: functional
[23] = tested on: A549; assay: Induction of apoptosis in human A549 cells assessed as necrotic cells at 1 uM after 72 hrs by Annexin V-FITC/propidium iodide staining-based flow cytometric analysis (reference value: 1.70%); type: functional
[24] = tested on: A549; assay: Induction of apoptosis in human A549 cells assessed as late apoptotic cells at 1 uM after 72 hrs by Annexin V-FITC/propidium iodide staining-based flow cytometric analysis (reference value: 1.24%); type: functional
[25] = biological target: Focal adhesion kinase 1 (Homo sapiens, UniProt Q05397); assay: Inhibition of recombinant N-terminal GST-tagged human FAK (327 to 1052 residues) expressed in baculovirus expression system using TK as substrate incubated for 50 mins in presence of ATP and measured after 1 hr by HTRF assay

Sequence of CYP2D6 (P10635 whole entry): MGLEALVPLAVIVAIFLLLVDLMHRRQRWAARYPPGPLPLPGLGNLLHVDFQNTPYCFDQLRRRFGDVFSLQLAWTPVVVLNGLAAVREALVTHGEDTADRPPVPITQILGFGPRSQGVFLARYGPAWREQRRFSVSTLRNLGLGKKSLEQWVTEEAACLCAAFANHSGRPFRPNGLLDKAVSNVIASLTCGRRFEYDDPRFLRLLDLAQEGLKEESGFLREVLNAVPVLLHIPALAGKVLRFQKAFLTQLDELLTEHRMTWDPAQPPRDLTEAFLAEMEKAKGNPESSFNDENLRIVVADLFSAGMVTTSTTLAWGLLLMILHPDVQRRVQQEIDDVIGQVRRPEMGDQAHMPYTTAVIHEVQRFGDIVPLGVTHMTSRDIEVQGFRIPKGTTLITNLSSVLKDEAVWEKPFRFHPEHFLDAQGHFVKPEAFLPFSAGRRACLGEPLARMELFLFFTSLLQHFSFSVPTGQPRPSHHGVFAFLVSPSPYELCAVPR
Sequence of CYP2C9 (P11712 whole entry): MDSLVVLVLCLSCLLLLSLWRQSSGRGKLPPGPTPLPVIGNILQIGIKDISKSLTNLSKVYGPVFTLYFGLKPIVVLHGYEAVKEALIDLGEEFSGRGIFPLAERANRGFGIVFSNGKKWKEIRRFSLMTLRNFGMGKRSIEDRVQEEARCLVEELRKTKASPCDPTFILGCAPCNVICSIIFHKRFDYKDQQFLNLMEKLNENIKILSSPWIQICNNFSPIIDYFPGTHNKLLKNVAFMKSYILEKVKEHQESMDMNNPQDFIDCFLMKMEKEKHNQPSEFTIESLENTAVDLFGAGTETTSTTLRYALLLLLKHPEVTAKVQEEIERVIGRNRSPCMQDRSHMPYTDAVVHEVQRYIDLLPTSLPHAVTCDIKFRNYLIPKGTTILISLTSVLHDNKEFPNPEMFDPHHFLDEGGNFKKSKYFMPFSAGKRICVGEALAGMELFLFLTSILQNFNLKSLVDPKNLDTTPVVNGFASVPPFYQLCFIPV
Sequence of Fibroblast growth factor receptor 1 (Homo sapiens) (P11362 22-822 limits assumed): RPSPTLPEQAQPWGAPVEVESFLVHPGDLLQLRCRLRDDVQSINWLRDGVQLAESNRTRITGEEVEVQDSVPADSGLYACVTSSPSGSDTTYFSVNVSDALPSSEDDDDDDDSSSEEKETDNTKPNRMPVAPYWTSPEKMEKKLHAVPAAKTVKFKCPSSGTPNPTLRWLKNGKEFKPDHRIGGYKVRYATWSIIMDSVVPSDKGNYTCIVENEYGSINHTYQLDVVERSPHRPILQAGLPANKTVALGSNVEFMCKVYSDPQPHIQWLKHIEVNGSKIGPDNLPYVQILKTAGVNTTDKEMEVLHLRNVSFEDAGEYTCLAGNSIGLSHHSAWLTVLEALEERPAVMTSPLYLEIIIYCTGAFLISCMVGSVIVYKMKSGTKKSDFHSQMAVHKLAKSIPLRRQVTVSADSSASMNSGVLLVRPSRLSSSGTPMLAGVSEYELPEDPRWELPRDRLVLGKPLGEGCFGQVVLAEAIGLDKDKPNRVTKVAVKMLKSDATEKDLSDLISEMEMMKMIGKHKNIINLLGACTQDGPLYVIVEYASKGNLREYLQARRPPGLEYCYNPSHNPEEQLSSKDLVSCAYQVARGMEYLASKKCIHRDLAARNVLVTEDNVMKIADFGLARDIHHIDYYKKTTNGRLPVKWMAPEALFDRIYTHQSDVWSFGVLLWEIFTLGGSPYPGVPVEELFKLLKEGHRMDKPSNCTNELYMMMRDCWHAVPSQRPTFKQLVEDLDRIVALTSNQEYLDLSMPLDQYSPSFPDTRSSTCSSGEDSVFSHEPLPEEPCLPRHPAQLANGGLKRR
Sequence of Serine/threonine-protein kinase B-raf (Homo sapiens) (P15056 whole entry, the tested form may be a part): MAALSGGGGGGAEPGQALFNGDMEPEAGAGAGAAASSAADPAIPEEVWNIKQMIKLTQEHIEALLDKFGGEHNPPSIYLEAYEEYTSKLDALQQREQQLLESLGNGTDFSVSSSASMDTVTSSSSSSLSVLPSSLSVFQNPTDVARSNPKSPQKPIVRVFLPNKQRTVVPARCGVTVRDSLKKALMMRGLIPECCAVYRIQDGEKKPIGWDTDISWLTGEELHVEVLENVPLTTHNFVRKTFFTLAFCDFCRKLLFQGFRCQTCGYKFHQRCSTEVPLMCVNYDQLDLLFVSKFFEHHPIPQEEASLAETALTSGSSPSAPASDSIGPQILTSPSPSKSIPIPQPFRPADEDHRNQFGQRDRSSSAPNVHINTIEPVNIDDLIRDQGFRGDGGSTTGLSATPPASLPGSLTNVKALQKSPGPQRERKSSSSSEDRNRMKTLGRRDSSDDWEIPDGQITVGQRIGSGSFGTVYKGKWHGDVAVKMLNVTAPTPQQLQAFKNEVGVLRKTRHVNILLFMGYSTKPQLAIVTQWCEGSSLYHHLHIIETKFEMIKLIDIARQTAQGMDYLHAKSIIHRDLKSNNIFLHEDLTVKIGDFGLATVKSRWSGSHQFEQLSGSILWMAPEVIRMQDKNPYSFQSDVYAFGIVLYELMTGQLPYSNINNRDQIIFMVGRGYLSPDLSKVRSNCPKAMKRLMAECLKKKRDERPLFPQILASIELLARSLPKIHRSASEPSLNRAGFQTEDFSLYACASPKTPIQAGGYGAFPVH
Sequence of Serine/threonine-protein kinase TBK1 (Homo sapiens) (Q9UHD2 whole entry, the tested form may be a part): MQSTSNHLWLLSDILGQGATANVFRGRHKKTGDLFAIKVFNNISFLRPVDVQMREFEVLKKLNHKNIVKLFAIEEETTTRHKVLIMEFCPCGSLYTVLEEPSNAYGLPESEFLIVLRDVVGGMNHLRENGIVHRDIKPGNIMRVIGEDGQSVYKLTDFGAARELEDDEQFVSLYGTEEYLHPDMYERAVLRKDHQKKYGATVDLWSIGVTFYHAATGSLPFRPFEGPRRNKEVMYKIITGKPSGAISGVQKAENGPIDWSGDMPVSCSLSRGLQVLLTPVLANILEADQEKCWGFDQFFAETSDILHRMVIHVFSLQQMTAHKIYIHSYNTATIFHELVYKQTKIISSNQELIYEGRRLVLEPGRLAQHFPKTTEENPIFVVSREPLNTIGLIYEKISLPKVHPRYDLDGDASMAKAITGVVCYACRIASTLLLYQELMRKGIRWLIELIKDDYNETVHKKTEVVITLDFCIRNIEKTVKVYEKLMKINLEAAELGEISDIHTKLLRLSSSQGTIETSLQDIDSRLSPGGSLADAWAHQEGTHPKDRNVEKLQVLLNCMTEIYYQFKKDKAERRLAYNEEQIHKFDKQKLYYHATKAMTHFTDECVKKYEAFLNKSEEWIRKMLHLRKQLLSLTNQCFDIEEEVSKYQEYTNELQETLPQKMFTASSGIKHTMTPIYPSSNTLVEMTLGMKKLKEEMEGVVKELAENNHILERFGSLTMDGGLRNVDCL
Sequence of Serine/threonine-protein kinase PLK1 (Homo sapiens) (P53350 whole entry): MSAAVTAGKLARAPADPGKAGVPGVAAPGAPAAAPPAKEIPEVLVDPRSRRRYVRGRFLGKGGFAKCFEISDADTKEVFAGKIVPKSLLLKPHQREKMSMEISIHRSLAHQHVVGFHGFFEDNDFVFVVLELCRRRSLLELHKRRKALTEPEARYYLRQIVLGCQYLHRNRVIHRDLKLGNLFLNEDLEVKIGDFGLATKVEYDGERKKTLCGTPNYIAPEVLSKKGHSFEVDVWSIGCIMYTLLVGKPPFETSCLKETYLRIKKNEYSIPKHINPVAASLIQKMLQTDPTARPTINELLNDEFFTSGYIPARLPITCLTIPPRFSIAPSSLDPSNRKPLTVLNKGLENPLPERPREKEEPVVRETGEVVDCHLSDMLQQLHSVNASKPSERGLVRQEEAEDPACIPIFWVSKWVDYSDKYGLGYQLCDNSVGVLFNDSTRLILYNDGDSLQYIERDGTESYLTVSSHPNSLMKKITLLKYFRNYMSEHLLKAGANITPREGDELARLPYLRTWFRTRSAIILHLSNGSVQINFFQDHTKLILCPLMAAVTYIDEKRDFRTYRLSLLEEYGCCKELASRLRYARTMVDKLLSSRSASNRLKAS
Sequence of Tyrosine-protein kinase Lck (Homo sapiens) (P06239 2-509 limits assumed): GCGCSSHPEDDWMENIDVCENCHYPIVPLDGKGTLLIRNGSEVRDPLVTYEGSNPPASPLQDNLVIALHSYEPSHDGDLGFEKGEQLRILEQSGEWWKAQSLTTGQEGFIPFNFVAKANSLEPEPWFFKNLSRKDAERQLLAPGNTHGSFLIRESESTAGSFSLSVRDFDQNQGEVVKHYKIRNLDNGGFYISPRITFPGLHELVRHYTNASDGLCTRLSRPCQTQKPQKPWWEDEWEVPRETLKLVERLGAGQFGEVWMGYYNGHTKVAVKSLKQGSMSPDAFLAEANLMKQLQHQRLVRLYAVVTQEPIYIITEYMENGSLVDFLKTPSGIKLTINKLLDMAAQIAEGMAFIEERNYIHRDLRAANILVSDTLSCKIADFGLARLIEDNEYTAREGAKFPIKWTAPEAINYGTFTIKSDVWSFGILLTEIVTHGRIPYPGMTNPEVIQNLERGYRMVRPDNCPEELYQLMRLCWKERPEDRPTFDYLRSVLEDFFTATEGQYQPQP
Sequence of Tyrosine-protein kinase ZAP-70 (Homo sapiens) (P43403 whole entry): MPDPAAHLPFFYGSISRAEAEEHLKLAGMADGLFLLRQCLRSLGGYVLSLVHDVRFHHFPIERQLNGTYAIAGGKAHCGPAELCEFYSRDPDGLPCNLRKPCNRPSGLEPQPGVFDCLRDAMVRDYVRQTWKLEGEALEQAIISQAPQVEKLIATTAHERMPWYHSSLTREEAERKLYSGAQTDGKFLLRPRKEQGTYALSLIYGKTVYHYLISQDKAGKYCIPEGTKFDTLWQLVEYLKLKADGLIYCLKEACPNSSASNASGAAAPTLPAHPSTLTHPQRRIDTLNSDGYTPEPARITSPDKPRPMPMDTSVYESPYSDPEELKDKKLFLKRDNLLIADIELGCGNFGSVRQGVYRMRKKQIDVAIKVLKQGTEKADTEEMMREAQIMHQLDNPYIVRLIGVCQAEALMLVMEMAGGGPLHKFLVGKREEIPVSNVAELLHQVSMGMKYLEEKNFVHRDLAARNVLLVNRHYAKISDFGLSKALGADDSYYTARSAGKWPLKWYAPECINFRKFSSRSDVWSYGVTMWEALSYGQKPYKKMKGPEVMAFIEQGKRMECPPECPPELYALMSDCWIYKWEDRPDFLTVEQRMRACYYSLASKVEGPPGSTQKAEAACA

In the case of COc1cc(C(=O)NC2CCNCC2)ccc1Nc1nc(Nc2ccccc2P(C)(C)=O)c2cc[nH]c2n1, the inhibition [1] is reported as -3%, the inhibition [2] is reported as 23% and the inhibition [3] is reported as 2%. For the same compound, the inhibition [4] was 43%, the inhibition [5] was 14% and the inhibition [6] was 13%. It also gave an inhibition [7] of 6%, an inhibition [8] of 3% and an inhibition [9] of 1%. For the same compound, the inhibition [10] was 3%, the inhibition [11] was 98% and the inhibition [12] was 0%. For the same compound, the inhibition at 0.25 h, 10 µM [13] was 10.5%, the inhibition at 0.25 h, 10 µM [14] was 10.7% and the inhibition at 0.25 h, 10 µM [15] was 11.5%. The CLH [16] was 39.9 mL/min/kg, the microsomal CLint at 1 µM [17] was < 9.6 µL/min/mg and the remaining at 1 h, 1 µM [18] was 76.3%. It also gave a remaining at 1 h, 1 µM [19] of 78%, a half-life at 1 µM [20] of 2.29 h and an Activity [21] of 30.12%. For the same compound, the Activity [22] was 17.3%, the Activity [23] was 6.37% and the Activity [24] was 9.62%. It also gave an IC50 [25] of 5.4 nM.
